Molecules are shown by their SMILES. Like-named read-outs stand apart in the source and are kept apart here.

One data set addresses T1, Human recombinant MMP-2 (Homo sapiens, UniProt P08253).
T1 sequence (P08253 110-660): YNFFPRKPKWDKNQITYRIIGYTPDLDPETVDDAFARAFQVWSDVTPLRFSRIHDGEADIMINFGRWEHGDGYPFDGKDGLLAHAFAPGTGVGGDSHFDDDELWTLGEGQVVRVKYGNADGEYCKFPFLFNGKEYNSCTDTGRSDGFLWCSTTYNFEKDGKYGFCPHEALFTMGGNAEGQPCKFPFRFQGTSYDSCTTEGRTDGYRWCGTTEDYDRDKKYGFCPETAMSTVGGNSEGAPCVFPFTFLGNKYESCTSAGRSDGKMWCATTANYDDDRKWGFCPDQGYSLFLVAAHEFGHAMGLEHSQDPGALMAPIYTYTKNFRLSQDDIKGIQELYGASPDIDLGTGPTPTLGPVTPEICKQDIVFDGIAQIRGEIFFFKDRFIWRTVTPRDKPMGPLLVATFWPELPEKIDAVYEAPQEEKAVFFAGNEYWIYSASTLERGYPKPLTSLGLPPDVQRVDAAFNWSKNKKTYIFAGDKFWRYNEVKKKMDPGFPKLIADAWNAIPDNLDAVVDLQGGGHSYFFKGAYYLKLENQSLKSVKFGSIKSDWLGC
In words: Inhibition of MMP-2, fluorogenic substrate hydrolysis. Type of data set: biochemical.

Data set [1] can be described thus: In vitro metabolism, incubation with rat liver microsomes. To be noted: more metabolically stable than SB-3CT. It is filed as in vitro ADME. Background: Microsomes from liver hold many membrane-bound enzymes, among them those of drug oxidation.
Data set [2] addresses T2, catalytic domain of human recombinant MMP-1 (Homo sapiens, UniProt P03956).
T2 sequence (P03956 100-269 limits assumed): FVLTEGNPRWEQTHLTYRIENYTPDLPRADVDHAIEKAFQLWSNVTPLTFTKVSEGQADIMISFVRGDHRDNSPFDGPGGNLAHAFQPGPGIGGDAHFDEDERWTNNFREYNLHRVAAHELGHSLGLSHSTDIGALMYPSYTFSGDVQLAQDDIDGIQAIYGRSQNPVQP
In words: Inhibition of MMP-1 catalytic domain, fluorogenic substrate hydrolysis. Type of data set: biochemical.

Data set [3] concerns the target catalytic domain of human recombinant MMP-3 (Homo sapiens, UniProt P08254). In words: Inhibition of MMP-3 catalytic domain, fluorogenic substrate hydrolysis. Type of data set: biochemical.
Data set [4] concerns the target catalytic domain of human recombinant MMP-14 (MT1-MMP) (Homo sapiens, UniProt P50281). In words: Inhibition of MMP-14 catalytic domain, fluorogenic substrate hydrolysis. Type of data set: biochemical.
For data set [5], the target named is T3, Human recombinant active MMP-7 (Homo sapiens, UniProt P09237).
T3 sequence (P09237 95-267): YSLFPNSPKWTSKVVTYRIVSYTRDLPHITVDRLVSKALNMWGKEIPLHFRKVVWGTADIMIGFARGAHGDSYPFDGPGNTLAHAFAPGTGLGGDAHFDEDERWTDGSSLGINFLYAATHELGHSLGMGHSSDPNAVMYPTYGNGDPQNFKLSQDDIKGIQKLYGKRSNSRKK
In words: Inhibition of MMP-7, fluorogenic substrate hydrolysis. It is filed as biochemical.

The target of a further data set is Human recombinant MMP-9 (Homo sapiens, UniProt P14780). In words: Inhibition of MMP-9, fluorogenic substrate hydrolysis. It is filed as biochemical.
The conditions of data set [6]: 15-min incubation with rat liver microsomes; cited from earlier work.

Sequence of catalytic domain of human recombinant MMP-3 (P08254 100-272 limits assumed): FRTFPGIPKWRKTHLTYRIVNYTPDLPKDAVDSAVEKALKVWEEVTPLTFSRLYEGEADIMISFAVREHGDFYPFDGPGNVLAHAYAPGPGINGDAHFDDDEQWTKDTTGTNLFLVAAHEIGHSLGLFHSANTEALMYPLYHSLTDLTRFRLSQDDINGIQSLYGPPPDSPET
Sequence of Human recombinant MMP-9 (P14780 94-707): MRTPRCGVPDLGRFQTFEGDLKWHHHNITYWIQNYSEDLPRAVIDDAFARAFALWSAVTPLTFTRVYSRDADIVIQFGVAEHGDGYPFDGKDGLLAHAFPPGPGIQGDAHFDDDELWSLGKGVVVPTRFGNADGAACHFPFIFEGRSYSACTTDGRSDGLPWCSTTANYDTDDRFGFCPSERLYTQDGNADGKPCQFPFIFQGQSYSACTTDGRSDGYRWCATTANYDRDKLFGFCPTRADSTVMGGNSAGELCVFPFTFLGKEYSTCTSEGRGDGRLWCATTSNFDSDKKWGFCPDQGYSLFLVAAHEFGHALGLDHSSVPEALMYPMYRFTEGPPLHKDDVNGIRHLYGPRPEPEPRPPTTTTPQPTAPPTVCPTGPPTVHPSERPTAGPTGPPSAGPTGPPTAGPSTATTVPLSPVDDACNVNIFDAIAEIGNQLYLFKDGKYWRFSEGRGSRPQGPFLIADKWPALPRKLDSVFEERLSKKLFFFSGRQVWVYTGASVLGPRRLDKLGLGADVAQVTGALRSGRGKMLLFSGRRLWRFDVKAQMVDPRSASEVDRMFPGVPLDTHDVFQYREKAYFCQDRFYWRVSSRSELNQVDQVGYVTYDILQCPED

Usually Ki stands for the equilibrium dissociation constant of an inhibitor or competing ligand from its target. Consider `C[C@@H]([C@@H]1CS1)S(=O)(=O)c1ccc(Oc2ccccc2)cc1` [Compound 5a, (2S)-2-(1S-(4-Phenoxyphenylsulfonyl)ethyl)thiirane], for which the Ki at Human recombinant MMP-2 (MMP-2, linear competitive inhibitors) is 7200 ± 100 nM.
As a reminder, the koff is the first-order rate constant of dissociation. What is called kon is the second-order rate constant of association. Take `C[C@H]([C@@H]1CS1)S(=O)(=O)c1ccc(Oc2ccccc2)cc1` [Compound 5d, (2S)-2-(1R-(4-Phenoxyphenylsulfonyl)ethyl)thiirane]: the “Metabolic stability relative to SB-3CT” value in data set [1] is listed as greater than 50 fold. In addition, the Ki in data set [2] is greater than 60000 nM; at Human recombinant MMP-2 it was 390 ± 30 nM; in data set [4], 2100 ± 200 nM; in data set [5], greater than 60000 nM; at Human recombinant MMP-9 it was 3300 ± 200 nM. Besides, in data set [3] (read-out: Inhibition at 60 μM), the inhibition at 60 µM was 9%. Besides, the koff was determined as 0.00081 ± 6e-05 s⁻¹ at Human recombinant MMP-2 (read-out: 10^4 koff), 0.00095 ± 9e-05 s⁻¹ in data set [4] (read-out: 10^4 koff) and 0.00072 ± 4e-05 s⁻¹ on Human recombinant MMP-9 (read-out: 10^4 koff). For the same molecule, the values for the kon (on Human recombinant MMP-2 (read-out: 10^–3 kon); in data set [4] (read-out: 10^–3 kon); on Human recombinant MMP-9 (read-out: 10^–3 kon)) were 2100 ± 100 M⁻¹ s⁻¹, 460 ± 10 M⁻¹ s⁻¹ and 220 ± 10 M⁻¹ s⁻¹, respectively.
`C[C@@H]([C@H]1CS1)S(=O)(=O)c1ccc(Oc2ccccc2)cc1` [Compound 5b, (2R)-2-(1S-(4-Phenoxyphenylsulfonyl)ethyl)thiirane]: the “Metabolic stability relative to SB-3CT” value in data set [1] was greater than 50 fold. Also, the Ki in data set [2] (read-out: Inhibition (Ki column), MMP-1cat, up to 60 μM) is greater than 60000 nM; on Human recombinant MMP-2 (MMP-2), 180 ± 30 nM; in data set [4] (MMP-14cat), 740 ± 170 nM; in data set [5] (read-out: Inhibition (Ki column), MMP-7, up to 60 μM), greater than 60000 nM; at Human recombinant MMP-9 (MMP-9), 3500 ± 200 nM. Also, the “inhibition at 60 µM” value in data set [3] (MMP-3cat, 60 μM inhibitor) was determined as 8% Inhibition at 60 μM. For the same molecule, the “10^–3 kon” value at Human recombinant MMP-2 (MMP-2, slow-binding onset rate constant, values printed as 10^–3 kon) turned out to be 3.3 ± 0.1 M/second; in data set [4] (MMP-14cat, values printed as 10^–3 kon) it was 1.2 ± 0.1 M/second; at Human recombinant MMP-9 (MMP-9, values printed as 10^–3 kon), 0.26 ± 0.01 M/second. Besides, the “10^4 koff” value worked out at 5.9 ± 1.0 second on Human recombinant MMP-2 (MMP-2, values printed as 10^4 koff); 8.9 ± 2.1 second in data set [4] (MMP-14cat, values printed as 10^4 koff); 9.0 ± 0.6 second at Human recombinant MMP-9 (MMP-9, values printed as 10^4 koff).
Consider `O=S(=O)(CC1CS1)c1ccc(Oc2ccccc2)cc1` (centres unmarked) [Compound 1, 2-(4-phenoxyphenylsulfonylmethyl)thiirane], for which the compound remaining in data set [6] is 0.5%.
Regarding `C[C@@H]([C@H]1C[S+]1[O-])S(=O)(=O)c1ccc(Oc2ccccc2)cc1` (stereo partly drawn) [Compound 12, (2R)-2-(1S-(4-Phenoxyphenylsulfonyl)ethyl)thiirane S-oxide], the inhibitory constant (Ki) on Human recombinant MMP-2 (MMP-2) is 20000 nM. For the same molecule, the “inhibition at a fixed 60 μM inhibitor concentration” value in data set [4] (MMP-14, 60 μM) was 0%; on Human recombinant MMP-9 (MMP-9, 60 μM) it was 30%.
For the molecule `C[C@H]([C@H]1CS1)S(=O)(=O)c1ccc(Oc2ccccc2)cc1` [Compound 5c, (2R)-2-(1R-(4-Phenoxyphenylsulfonyl)ethyl)thiirane], the Ki at Human recombinant MMP-2 came out at 4100 ± 100 nM.
`CC(C1CS1)S(=O)(=O)c1ccc(Oc2ccc(O)cc2)cc1` (centres unmarked) [Compound 13b]: the inhibition in words result in data set [2] (MMP-1, inhibitor concentrations up to 60 μM) is “Marginal to no inhibition”; in data set [3] (MMP-3, inhibitor concentrations up to 60 μM), “Marginal to no inhibition”; in data set [5] (MMP-7, inhibitor concentrations up to 60 μM), “Marginal to no inhibition”. For the same molecule, the Ki stood at 220 ± 90 nM at Human recombinant MMP-2 (MMP-2), 2100 ± 700 nM in data set [4] (MMP-14cat) and 1900 ± 700 nM at Human recombinant MMP-9 (MMP-9).

(Values after publication PMC2901852 (Chemical biology & drug design, 2009).)
